{"source": "PubChem BioAssay AID1919017", "about": "(Molecular Pharmacology Branch, DTP, NCI, 2023)", "tested_on": "SW1271 complex spheroids with HUVEC/MSC, growth, % test/control", "experiment": "Anticancer human tumor SW1271 cell line growth inhibition [AhR];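 as to all read-outs here: spheroids exposed to agents for 7 days before readout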", "details": "for IC50: curve of first compound; for viability, T/C: stronger effect = lower value", "method_in_brief": "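Spheroids combined tumor cells with HUVEC endothelial cells and human MSCs as stroma. AhR antagonists were paired with standard or investigational drugs, each dosed in half-log steps down from near clinical Cmax, or from 10 microM where Cmax was unknown.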", "data": [{"compound": "CC[C@@]1(O)C(=O)OCc2c1cc1n(c2=O)Cc2cc3c(CN(C)C)c(O)ccc3nc2-1", "note": "+ Cc1ccccc1N=Nc1ccc(NC(=O)c2ccnn2C)c(C)c1", "values": [{"measurement": "IC50", "setting": "second compound 0.1 µM", "result": "> 100", "unit": "nM"}, {"measurement": "IC50", "setting": "second compound 0.316 µM", "result": "> 100", "unit": "nM"}, {"measurement": "IC50", "setting": "second compound 1 µM", "result": "> 100", "unit": "nM"}, {"measurement": "IC50", "setting": "second compound 3.16 µM", "result": "> 100", "unit": "nM"}, {"measurement": "IC50", "setting": "second compound 10 µM", "result": "> 100", "unit": "nM"}, {"measurement": "viability, T/C", "setting": "second compound 0.1 µM, first compound 0.000316 µM", "result": 81.8, "unit": "%"}, {"measurement": "viability, T/C", "setting": "second compound 0.1 µM, first compound 0.001 µM", "result": 98.9, "unit": "%"}, {"measurement": "viability, T/C", "setting": "second compound 0.1 µM, first compound 0.00316 µM", "result": 69.4, "unit": "%"}, {"measurement": "viability, T/C", "setting": "second compound 0.1 µM, first compound 0.01 µM", "result": 67.8, "unit": "%"}, {"measurement": "viability, T/C", "setting": "second compound 0.1 µM, first compound 0.0316 µM", "result": 57.5, "unit": "%"}, {"measurement": "viability, T/C", "setting": "second compound 0.1 µM, first compound 0.1 µM", "result": 53.1, "unit": "%"}, {"measurement": "viability, T/C", "setting": "second compound 0.316 µM, first compound 0.000316 µM", "result": 89.4, "unit": "%"}, {"measurement": "viability, T/C", "setting": "second compound 0.316 µM, first compound 0.001 µM", "result": 92, "unit": "%"}, {"measurement": "viability, T/C", "setting": "second compound 0.316 µM, first compound 0.00316 µM", "result": 79.9, "unit": "%"}, {"measurement": "viability, T/C", "setting": "second compound 0.316 µM, first compound 0.01 µM", "result": 65.8, "unit": "%"}, {"measurement": "viability, T/C", "setting": "second compound 0.316 µM, first compound 0.0316 µM", "result": 69.2, "unit": "%"}, {"measurement": "viability, T/C", "setting": "second compound 0.316 µM, first compound 0.1 µM", "result": 63.9, "unit": "%"}, {"measurement": "viability, T/C", "setting": "second compound 1 µM, first compound 0.000316 µM", "result": 77.9, "unit": "%"}, {"measurement": "viability, T/C", "setting": "second compound 1 µM, first compound 0.001 µM", "result": 83.4, "unit": "%"}, {"measurement": "viability, T/C", "setting": "second compound 1 µM, first compound 0.00316 µM", "result": 88, "unit": "%"}, {"measurement": "viability, T/C", "setting": "second compound 1 µM, first compound 0.01 µM", "result": 80, "unit": "%"}, {"measurement": "viability, T/C", "setting": "second compound 1 µM, first compound 0.0316 µM", "result": 63.8, "unit": "%"}, {"measurement": "viability, T/C", "setting": "second compound 1 µM, first compound 0.1 µM", "result": 57.3, "unit": "%"}, {"measurement": "viability, T/C", "setting": "second compound 3.16 µM, first compound 0.000316 µM", "result": 84.5, "unit": "%"}, {"measurement": "viability, T/C", "setting": "second compound 3.16 µM, first compound 0.001 µM", "result": 86.4, "unit": "%"}, {"measurement": "viability, T/C", "setting": "second compound 3.16 µM, first compound 0.00316 µM", "result": 88.7, "unit": "%"}, {"measurement": "viability, T/C", "setting": "second compound 3.16 µM, first compound 0.01 µM", "result": 68.2, "unit": "%"}, {"measurement": "viability, T/C", "setting": "second compound 3.16 µM, first compound 0.0316 µM", "result": 78.2, "unit": "%"}, {"measurement": "viability, T/C", "setting": "second compound 3.16 µM, first compound 0.1 µM", "result": 67.4, "unit": "%"}, {"measurement": "viability, T/C", "setting": "second compound 10 µM, first compound 0.000316 µM", "result": 86.7, "unit": "%"}, {"measurement": "viability, T/C", "setting": "second compound 10 µM, first compound 0.001 µM", "result": 83, "unit": "%"}, {"measurement": "viability, T/C", "setting": "second compound 10 µM, first compound 0.00316 µM", "result": 87.2, "unit": "%"}, {"measurement": "viability, T/C", "setting": "second compound 10 µM, first compound 0.01 µM", "result": 62.1, "unit": "%"}, {"measurement": "viability, T/C", "setting": "second compound 10 µM, first compound 0.0316 µM", "result": 60.8, "unit": "%"}, {"measurement": "viability, T/C", "setting": "second compound 10 µM, first compound 0.1 µM", "result": 65.5, "unit": "%"}]}]}
